Measurements published in patent publication US20120077753A1, “JNK INHIBITORS FOR USE IN TREATING SPINAL MUSCULAR ATROPHY” (priority 2009, published 2012).

What was measured:
phosphorylation of c-Jun [1] = settings: in cells; cited from earlier work
CD4+ CD8+ thymocytes = settings: animal studies; cited from earlier work
Primary neurons = assay: Degeneration of primary neurons transfected with siRNA-Smn or scrambled siRNA (tubulin staining, confocal microscopy); type: cell-based, mice
Description: (§1) Primary neurons transfected with scrambled siRNA (Control) and SMN specific siRNA (siRNA-Smn) were treated with DMSO or SP600125 after 36 h (post-transfection). Neurons were incubated for additional 60 h, fixed and stained with antibodies to Tubulin and phospho-JNK. Stained neurons were examined by confocal microscopy. Primary neurons transfected with scrambled siRNA (Control) and SMN specific siRNA (siRNA-Smn) were treated with DMSO or SP600125 after 36 h (post-transfection). Neurons were incubated for additional 60 h, fixed and stained with antibodies to Tubulin and phospho-c-Jun. Stained neurons were examined by confocal microscopy. To determine whether JNK activity is required for neurodegeneration, the effect of JNK inhibitor (SP600125) was examine on degeneration of neurons caused by SMN-deficiency. […] The knockdown of SMN neurons treated with solvent (DMSO) results in degeneration of neurons as expected. […] To determine whether the neuroprotection is a result of JNK inhibition achieved by treatment of SP600125, the phosphorylation of c-Jun was examined. […] To determine whether activation of JNK is normal in neurons treated with siRNA and JNK inhibitor, phospho-JNK was examined because JNK is activated by phosphorylation.

phosphorylation of c-Jun [2] = assay: Phospho-c-Jun staining in primary neurons lacking SMN; type: cell-based, mice; settings: neurons lacking SMN (siRNA-Smn), vs untreated with JNK inhibitor
Description: as §1, with “Primary” for “Primary neurons transfected with scrambled siRNA (Control) and SMN specific siRNA (siRNA-Smn) were treated with DMSO or SP600125 after 36 h (post-transfection). Neurons were incubated for additional 60 h, fixed and stained with antibodies to Tubulin and phospho-JNK. Stained neurons were examined by confocal microscopy. Primary”

phospho-JNK = assay: Phospho-JNK staining in primary neurons lacking SMN; type: cell-based, mice; settings: neurons treated with siRNA+SP600125
Description: as §1, with “phospho-JNK.” for “phospho-JNK. Stained neurons were examined by confocal microscopy. Primary neurons transfected with scrambled siRNA (Control) and SMN specific siRNA (siRNA-Smn) were treated with DMSO or SP600125 after 36 h (post-transfection). Neurons were incubated for additional 60 h, fixed and stained with antibodies to Tubulin and phospho-c-Jun.”

[3] = tested on: a range of kinases and enzymes; settings: cited from earlier work
JNK-1, -2, and -3 = settings: ATP-competitive reversible inhibitor; cited from earlier work
tumor necrosis factor-α = settings: animal studies; cited from earlier work
JNK3 = JNK3 (Homo sapiens, UniProt P53779); settings: cited from earlier work
JNK3, sequence (P53779 whole entry, species assumed): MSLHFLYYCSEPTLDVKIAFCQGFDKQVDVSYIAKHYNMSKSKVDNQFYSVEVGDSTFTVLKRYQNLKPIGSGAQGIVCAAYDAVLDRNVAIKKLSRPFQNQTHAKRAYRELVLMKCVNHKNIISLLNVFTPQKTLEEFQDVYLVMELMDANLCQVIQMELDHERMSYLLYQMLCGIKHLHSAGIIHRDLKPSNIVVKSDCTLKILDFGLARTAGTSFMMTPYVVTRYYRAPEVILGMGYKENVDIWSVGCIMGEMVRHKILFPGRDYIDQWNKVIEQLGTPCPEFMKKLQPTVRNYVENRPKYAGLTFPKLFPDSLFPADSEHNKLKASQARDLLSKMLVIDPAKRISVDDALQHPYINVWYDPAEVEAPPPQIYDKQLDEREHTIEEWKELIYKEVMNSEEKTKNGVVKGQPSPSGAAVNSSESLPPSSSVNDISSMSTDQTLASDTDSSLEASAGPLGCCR

O=C1c2ccccc2-c2n[nH]c3cccc1c23 [SP600125, Anthra[1,9-cd]pyrazol-6(2H)-on]
inhibition of the phosphorylation of c-Jun (phosphorylation of c-Jun [1]): dose-dependent inhibition
anti-CD3-induced apoptosis of CD4+ CD8+ thymocytes (CD4+ CD8+ thymocytes): prevented
neuron degeneration in control experiments (Primary neurons; control neurons, SP600125): did not cause neuron degeneration
degeneration of neurons caused by SMN-deficiency (Primary neurons; neurons transfected with siRNA-Smn, inhibitor added 36 h post-transfection, additional 60 h, vs solvent (DMSO)): marked reduction in degeneration
phosphorylation of c-Jun (phosphorylation of c-Jun [2]): marked reduction in the phosphorylation of c-Jun
phospho-JNK (JNK activation) (phospho-JNK): presence of phospho-JNK
selectivity vs. a range of kinases and enzymes tested [3]: > 20 fold
Ki (JNK-1, -2, and -3): 190 nM
bacterial lipopolysaccharide-induced expression of tumor necrosis factor-α (tumor necrosis factor-α): inhibited

O=C1c2c(CCCCCNc3ccccc3)cccc2-c2n[nH]c3cccc1c23 [7-(5-7V-Phenylaminopentyl)-2H-anthra[1,9-cd]pyrazol-6-one]
JNK3 selectivity (JNK3): selective inhibitors of JNK3

O=C(NCCCCCCCNc1cccc2c1C(=O)c1cccc3[nH]nc-2c13)c1ccccc1 [7-(7-7V-Benzoylaminoheptyl)amino-2H-anthra[1,9-cd]pyrazol-6-one]
JNK3 selectivity (JNK3): selective inhibitors of JNK3

Cc1ccc(OCCCCCNc2cccc3c2C(=O)c2cccc4[nH]nc-3c24)cc1 [7-(5-(p-Tolyloxy)pentyl)amino-2H-anthra[1,9-cd]pyrazol-6-one]
JNK3 selectivity (JNK3): selective inhibitors of JNK3
